Patent US11654096B2 (L'OREAL, priority 2017, dated 2023)
Where “and” joins values, the source holds several entries; their conditions need not be identical. Equal values may be shown once.

Experiments:
Type in all cases: cell-based
[1] = system: normal human epidermal keratinocytes (NHEKs); experiment: Neosynthesis of total GAGs by NHEKs, [3H]-glucosamine incorporation; settings: for % Control / Mean (cpm) / [3H]-glucosamine (cpm): total GAGs, NHEKs; for [3H]-glucosamine (cpm): single replicates
Experimental: (§1) The effects of the compounds on the neosynthesis of total and sulfated glycosaminoglycans (GAGs) were studied on two cell models, normal human epidermal keratinocytes (NHEKs) and normal human dermal fibroblasts (NHDFs). The effects of these compounds were evaluated by measuring: • the incorporation of [3H]-glucosamine into the total GAGs neosynthesized by NHEKs and by NHDFs, • the incorporation of [35S]-sulfate into the sulfated GAGs neosynthesized by NHEKs and by NHDFs.
(§2) The keratinocytes were seeded into wells and cultured in culture medium for 24 hours. The medium was then replaced with culture medium containing or not containing (control) the compounds to be tested or the reference (4-nitrophenyl β-D-xylopyranoside at 300 μM), then the cells were incubated for 72 hours with the addition of the [3H]-glucosamine radioactive label (total GAGs) or of the [35S]-sulfate radioactive label (sulfated GAGs) for the final 24 hours of incubation.
(§3) At the end of the incubation, the glycosaminoglycans were extracted from the cells with a chaotropic buffer. The GAGs were then purified by ion exchange chromatography: adsorption of the anionic molecules on Q-Sepharose beads and desorption of the molecules of low or medium anionic nature, with a suitable solution.
(§4) The radioactivity incorporated into the molecules left on the support (GAGs, predominantly) was measured by liquid scintillation.
(§5) All the experimental conditions were performed in n=3.
(§6) The inter-group comparisons were performed using Student's non-paired two-sided t-test. The statistical analyses can be interpreted if n≥5; however, for n<5, the data calculated are provided only by way of indication.

[2] = system: normal human epidermal keratinocytes (NHEKs); experiment: Neosynthesis of sulfated GAGs by NHEKs, [35S]-sulfate incorporation; settings: for % Control / Mean (cpm) / [35S]-Sulfate (cpm): sulfated GAGs, NHEKs; for [35S]-Sulfate (cpm): single replicates
Experimental: as §1, §2, §3, §4, §5, §6

[3] = system: normal human dermal fibroblasts (NHDFs); experiment: Neosynthesis of total GAGs by NHDFs, [3H]-glucosamine incorporation; settings: for % Control / Mean (cpm) / [3H]-glucosamine (cpm): total GAGs, NHDFs; for [3H]-glucosamine (cpm): single replicates
Experimental: as §1
(§7) The fibroblasts were seeded into wells and cultured in culture medium for 24 hours. The medium was then replaced with culture medium containing or not containing (controt) the compounds to be tested or the reference (TGF-β at 10 ng/ml), then the cells were incubated for 72 hours with the addition of the [35S]-sulfate radioactive label (sulfated GAGs) or of the [3H]-glucosamine radioactive label (total GAGs) for the final 24 hours of incubation.
as §3, §4, §5, §6

[4] = system: normal human dermal fibroblasts (NHDFs); experiment: Neosynthesis of sulfated GAGs by NHDFs, [35S]-sulfate incorporation; settings: for % Control / Mean (cpm) / [35S]-Sulfate (cpm): sulfated GAGs, NHDFs; for [35S]-Sulfate (cpm): single replicates
Experimental: as §1, §7, §3, §4, §5, §6

SMILES: Oc1ccc(C=Cc2cc(O)cc(O)c2)cc1 [Resveratrol]
- effect on the neosynthesis of the total GAGs by the NHEKs (in words) ([1]; tested at 10 and 100 μM): inhibited, in a concentration-dependent manner
- % Control ([1]; campaign 1, 10 μM): 64%
- Mean (cpm) ([1]; campaign 1, 10 μM): 8328 cpm
- [3H]-glucosamine (cpm) ([1]; campaign 1, 10 μM): 7566 cpm and 8537 cpm and 8880 cpm
- % Control ([1]; campaign 1, 100 μM): 13%
- Mean (cpm) ([1]; campaign 1, 100 μM): 1743 cpm
- [3H]-glucosamine (cpm) ([1]; campaign 1, 100 μM): 1509 cpm and 1754 cpm and 1967 cpm
- % Control ([1]; campaign 2, 1 μM): 113%
- Mean (cpm) ([1]; campaign 2, 1 μM): 9628 cpm
- [3H]-glucosamine (cpm) ([1]; campaign 2, 1 μM): 10734 cpm and 10012 cpm and 8137 cpm
- % Control ([1]; campaign 2, 10 μM): 86%
- Mean (cpm) ([1]; campaign 2, 10 μM): 7347 cpm
- [3H]-glucosamine (cpm) ([1]; campaign 2, 10 μM): 6772 cpm and 7143 cpm and 8126 cpm
- % Control ([2]; campaign 1, 10 μM): 77%
- Mean (cpm) ([2]; campaign 1, 10 μM): 5254 cpm
- [35S]-Sulfate (cpm) ([2]; campaign 1, 10 μM): 5238 cpm and 5506 cpm and 5018 cpm
- % Control ([2]; campaign 1, 100 μM): 27%
- Mean (cpm) ([2]; campaign 1, 100 μM): 1802 cpm
- [35S]-Sulfate (cpm) ([2]; campaign 1, 100 μM): 1836 cpm and 1725 cpm and 1845 cpm
- Mean (cpm) ([2]; campaign 2, 1 μM): 6530 cpm
- [35S]-Sulfate (cpm) ([2]; campaign 2, 1 μM): 6885 cpm and 6817 cpm and 5888 cpm
- % Control ([2]; campaign 2, 10 μM): 94%
- Mean (cpm) ([2]; campaign 2, 10 μM): 4973 cpm
- [35S]-Sulfate (cpm) ([2]; campaign 2, 10 μM): 5137 cpm and 4981 cpm and 4802 cpm
- effect on the neosynthesis of the sulfated GAGs by the NHEKs (in words) ([2]; tested at 10 and 100 μM): inhibited, in a concentration-dependent manner
- effect on the neosynthesis of the total GAGs by the NHDFs (in words) ([3]; tested at 10 and 100 μM): overall inhibited
- % Control ([3]; campaign 2, 10 μM): 98%
- Mean (cpm) ([3]; campaign 2, 10 μM): 1534 cpm
- [3H]-glucosamine (cpm) ([3]; campaign 2, 10 μM): 1439 cpm and 1533 cpm and 1630 cpm
- % Control ([3]; campaign 2, 100 μM): 86%
- Mean (cpm) ([3]; campaign 2, 100 μM): 1339 cpm
- [3H]-glucosamine (cpm) ([3]; campaign 2, 100 μM): 1253 cpm and 1360 cpm and 1404 cpm
- % Control ([4]; campaign 1, 10 μM): 93%
- Mean (cpm) ([4]; campaign 1, 10 μM): 1527 cpm
- [35S]-Sulfate (cpm) ([4]; campaign 1, 10 μM): 1506 cpm and 1556 cpm and 1519 cpm
- % Control ([4]; campaign 1, 100 μM): 62%
- Mean (cpm) ([4]; campaign 1, 100 μM): 1019 cpm
- [35S]-Sulfate (cpm) ([4]; campaign 1, 100 μM): 967 cpm and 1045 cpm and 1046 cpm
- % Control ([4]; campaign 2, 10 μM): 101%
- Mean (cpm) ([4]; campaign 2, 10 μM): 571 cpm
- [35S]-Sulfate (cpm) ([4]; campaign 2, 10 μM): 613 cpm and 513 cpm and 586 cpm
- % Control ([4]; campaign 2, 100 μM): 54%
- Mean (cpm) ([4]; campaign 2, 100 μM): 305 cpm
- [35S]-Sulfate (cpm) ([4]; campaign 2, 100 μM): 355 cpm and 283 cpm and 276 cpm
- effect on the neosynthesis of the sulfated GAGs by the NHDFs (in words) ([4]; tested at 10 and 100 μM): overall inhibited

SMILES: Oc1ccc(/C=C/c2cc(O)cc(O[C@@H]3OC[C@@H](O)[C@H](O)[C@H]3O)c2)cc1 [Compound 1a, 3-hydroxy-5-[(E)-2-(4-hydroxyphenyl)ethenyl]phenyl β-D-xylopyranoside]
- % Control ([1]; campaign 1, 10 μM): 117%
- Mean (cpm) ([1]; campaign 1, 10 μM): 15165 cpm
- [3H]-glucosamine (cpm) ([1]; campaign 1, 10 μM): 14440 cpm and 15184 cpm and 15871 cpm
- % Control ([1]; campaign 1, 100 μM): 235%
- Mean (cpm) ([1]; campaign 1, 100 μM): 30380 cpm
- [3H]-glucosamine (cpm) ([1]; campaign 1, 100 μM): 30079 cpm and 29149 cpm and 31911 cpm
- % Control ([1]; campaign 2, 10 μM): 134%
- Mean (cpm) ([1]; campaign 2, 10 μM): 11405 cpm
- [3H]-glucosamine (cpm) ([1]; campaign 2, 10 μM): 10145 cpm and 11857 cpm and 12213 cpm
- % Control ([1]; campaign 2, 100 μM): 199%
- Mean (cpm) ([1]; campaign 2, 100 μM): 16980 cpm
- [3H]-glucosamine (cpm) ([1]; campaign 2, 100 μM): 16745 cpm and 16574 cpm and 17621 cpm
- % Control ([2]; campaign 1, 10 μM): 137%
- Mean (cpm) ([2]; campaign 1, 10 μM): 9319 cpm
- [35S]-Sulfate (cpm) ([2]; campaign 1, 10 μM): 9304 cpm and 9522 cpm and 9131 cpm
- % Control ([2]; campaign 1, 100 μM): 839%
- Mean (cpm) ([2]; campaign 1, 100 μM): 56923 cpm
- [35S]-Sulfate (cpm) ([2]; campaign 1, 100 μM): 53801 cpm and 56728 cpm and 60239 cpm
- % Control ([2]; campaign 2, 10 μM): 217%
- Mean (cpm) ([2]; campaign 2, 10 μM): 11501 cpm
- [35S]-Sulfate (cpm) ([2]; campaign 2, 10 μM): 10206 cpm and 12532 cpm and 11765 cpm
- % Control ([2]; campaign 2, 100 μM): 973%
- Mean (cpm) ([2]; campaign 2, 100 μM): 51673 cpm
- [35S]-Sulfate (cpm) ([2]; campaign 2, 100 μM): 46568 cpm and 54125 cpm and 54327 cpm
- % Control ([3]; campaign 2, 10 μM): 108%
- Mean (cpm) ([3]; campaign 2, 10 μM): 1684 cpm
- [3H]-glucosamine (cpm) ([3]; campaign 2, 10 μM): 1622 cpm and 1750 cpm and 1680 cpm
- % Control ([3]; campaign 2, 100 μM): 90%
- Mean (cpm) ([3]; campaign 2, 100 μM): 1408 cpm
- [3H]-glucosamine (cpm) ([3]; campaign 2, 100 μM): 1422 cpm and 1331 cpm and 1470 cpm
- % Control ([4]; campaign 1, 10 μM): 211%
- Mean (cpm) ([4]; campaign 1, 10 μM): 3472 cpm
- [35S]-Sulfate (cpm) ([4]; campaign 1, 10 μM): 3286 cpm and 3573 cpm and 3557 cpm
- % Control ([4]; campaign 1, 100 μM): 537%
- Mean (cpm) ([4]; campaign 1, 100 μM): 8844 cpm
- [35S]-Sulfate (cpm) ([4]; campaign 1, 100 μM): 8753 cpm and 8534 cpm and 9244 cpm
- % Control ([4]; campaign 2, 10 μM): 221%
- Mean (cpm) ([4]; campaign 2, 10 μM): 1254 cpm
- [35S]-Sulfate (cpm) ([4]; campaign 2, 10 μM): 1274 cpm and 1307 cpm and 1180 cpm
- % Control ([4]; campaign 2, 100 μM): 411%
- Mean (cpm) ([4]; campaign 2, 100 μM): 2328 cpm
- [35S]-Sulfate (cpm) ([4]; campaign 2, 100 μM): 2237 cpm and 2369 cpm and 2379 cpm
